Test results taken from publication PMC8003975 (Cancers, 2021).

Columns and labels:
[1] = set-up: method as in PMID 28441771, PMID 29231907, PMID 28587113; conditions: preclinical and clinical studies; cited from earlier work
Cal27 and JHU029 cells = experiment: HNC cell cytotoxicity assay of other bitter melon compounds (Figure S1); format: cell-based, human; conditions: 48 hr
Method: Cal27, JHU029, JHU022 and NOK were seeded in 96 well-plate (5000 cells/well) and cells were treated with different concentration of M-I for 48 h. There were untreated control and DMSO treated vehicle control group for comparison. Cytotoxicity assay was performed using Cell Counting Kit-8 (Dojindo Molecular Technology, Rockville, MD, USA) according to manufacturer instruction.
Supplementary Materials: Momordicine-I, a Bitter
Activity in Head and Neck Cancer Involving c-Met
Figure S1. Cal27 and JHU029 ells were treated with momordicine-I (M-I), momordicosideK (MK), karavilageninD (KD) at indicated doses for 48 hr and cytotoxicity assay was performed. Small bar indicates standard error.
Figure S2. Whole blot for Figure 2A. […]

[2] = literature-reported biology of the tentatively identified metabolite; no reference given; cited from earlier work

| Compound | Reported Biology [2] | other results |
| --- | --- | --- |
| COc1cc2c(Oc3ccc(NC(=O)C4(C(=O)Nc5ccc(F)cc5)CC4)cc3F)ccnc2cc1OCCCN1CCOCC1 [Foretinib] | – | adverse side effects [1]: fatigue, hypertension, and gastrointestinal toxicities |
| CN1CCN(C2CCN(C(=O)Nc3cc(Oc4ccc(NC(=O)C5(C(=O)Nc6ccc(F)cc6)CC5)c(F)c4)ccn3)CC2)CC1 [Golvatinib] | – | adverse side effects [1]: supraventricular tachycardia, convulsion, and pulmonary embolism |
| C[C@H](C/C=C/C(C)(C)O)[C@H]1CC[C@@]2(C)[C@@H]3C=C[C@@]45OC(=O)[C@]3(CC[C@]12C)[C@@H]4CC[C@H](O)C5(C)C [KD, karavilagenin D] | – | amount required for ~40% cell death (Cal27 and JHU029 cells): > 50 µg/mL |
| CO[C@H]1C=C2[C@@H](CC[C@H](O[C@@H]3O[C@H](CO)[C@@H](O)[C@@H](O)[C@H]3O)C2(C)C)[C@]2(C)CC[C@]3(C)[C@@H]([C@H](C)C/C=C/C(C)(C)O)CC[C@@]3(C)[C@H]12 [Karaviloside III] | cytotoxic activity against Hep3B and HepG2 cell lines | – |
| C[C@H](C[C@@H](O)[C@H](O)C(C)(C)O)[C@H]1CC[C@@]2(C)[C@@H]3C=C[C@@]45OC[C@]3(CC[C@]12C)[C@@H]4CC[C@H](O[C@@H]1O[C@H](CO)[C@@H](O)[C@@H](O)[C@H]1O)C5(C)C [Karaviloside XI] | Antidiabetic | – |
| COC(C)(C)/C=C/C[C@@H](C)[C@H]1CC[C@@]2(C)[C@@H]3[C@@H](O[C@@H]4O[C@H](CO)[C@@H](O)[C@H](O)[C@H]4O)C=C4[C@@H](CC[C@H](O)C4(C)C)[C@]3(C=O)CC[C@]12C [MK, momordicoside K] | – | amount required for ~40% cell death (Cal27 and JHU029 cells): > 50 µg/mL |
| C[C@H](C/C=C/C(C)(C)O)[C@H]1CC[C@@]2(C)[C@@H]3[C@@H](O[C@@H]4O[C@H](CO)[C@@H](O)[C@H](O)[C@H]4O)C=C4[C@@H](CC[C@H](O)C4(C)C)[C@]3(C=O)CC[C@]12C [Momordicoside L] | Weak α-glucosidase inhibition | – |
| Sacranoside A | nitric oxide inhibitory effect | – |
